Assay results from patent publication US8138191B2, “Inhibitor compounds and cancer treatment methods” (Critical Outcome Technologies Inc., priority 2007, dated 2012).

System: normal human peripheral blood mononuclear cells (PBMCs)
Assay: Flow cytometric analysis of cell death (Annexin V/PI), PBMCs
Type: cell-based
Conditions: PBMC, PBMCs from healthy male and female subjects
Description: All cell lines were grown and exposed to various concentrations of COTI-2 or vehicle only control and the percentage of dead or dying cells were determined 24 and 48 h post-exposure by Annexin V and propidium iodide.
Blood samples from 2 healthy human volunteers (person) were obtained in 5 ml Vacutainers® containing 100 USP sodium heparin (Becton Dickinson, Franklin Lake, N.J.) and rocked gently to mix, then kept at room temperature. Blood was diluted 1:1 with phosphate buffered saline (PBS) and layered over an equal volume of room temperature Histopaque-1083® (Sigma Diagnostics, St. Louis, Mo.) in a 15 ml conical bottom polyethylene (PET) centrifuge tube (Corning Corporation, Corning, N.Y.). This was centrifuged at 400×g for 30 minutes at 20° C. […]
Cells were plated in 25-cm^2 flasks and treated with COTI-2 (0-100 μM) added from a stock DMSO/DMEM solution such that DMSO concentrations never exceeded 0.5%. […] Resuspended cells (100 μl) were incubated in the dark with 10 μl propidium iodide (PI, 50 ng per ml; Sigma, St. Louis, Mo.) plus Annexin V-FITC (25 ng per ml, green fluorescence; BD Biosciences, Mississauga, Ontario). […] Samples were analyzed for combined Annexin V/PI staining (to assess dead plus apoptotic cells) using a Beckman Coulter EPCS XL-MCL flow cytometer (Beckman Coulter, Hileah, Fla.) and the data were analyzed with CellQuest software.

**Q.** For `S=C(N/N=C1/CCCc2cccnc21)N1CCN(c2ccccn2)CC1` [COTI-2], which IC50 is on record?
**A.** Its IC50 is > 100 µM.
